Marks after values point to notes of the source that are not given here.
Assays:
[1] = system: mouse ear acute swelling inflammation models caused by croton oil; assay: Mouse ear acute swelling inflammation model caused by croton oil; format: in vivo, Balb/c mice; details: 5 mg/kg, once a day for 3 d
Description: Anti-inflammatory effects of the glycans 1 to 5 prepared in Examples 1 to 5 were evaluated, specifically as follows:
(1) Test method: experiments for evaluating pharmacodynamic activities of CS compounds in mouse ear acute swelling inflammation models caused by croton oil
Animals: Balb/c mice, male (20 g to 22 g); 8 mice per group.
Groups: model group, positive drug (indometacin) group (5 mg/kg), natural extract (CS-E) group (200 mg/kg), and glycan groups (200 mg/kg, 100 mg/kg, and 50 mg/kg). Each of the positive drug and the compounds of CS series was formulated with sodium carboxymethylcellulose at a concentration of 0.5% by mass, and stored in a refrigerator at 4° C.
Administration and test: the mice were administered for 3 d, once a day. After the last administration, an induction rate on mouse ear swelling (%) and an inhibition rate on the ear swelling degree (%) by the compounds were calculated.
Statistical analysis: the experimental results were all expressed as “mean±standard deviation”. A statistical difference between two groups was calculated and analyzed by the t-test method. * represents p<0.05, and ** represents p<0.01.

[2] = system: DSS-induced UC model mice; assay: DSS-induced acute ulcerative colitis (UC) mouse model; format: in vivo, C57BL/6J mice
Description: Pharmacodynamics of the Glycan 3 (referred to as SEMI5) prepared in Example 3 was evaluated on anti-DSS models, specifically as follows:
C57BL/6J mice, male (18 g to 20 g), 6 mice per group, which were purchased from Beijing Huafukang Biotechnology Co., Ltd., with a license No.: SCXK (Beijing) 2014-0004.
(1) Normal control group (control group): intragastrically administered with sodium carboxymethylcellulose at a concentration of 0.5% by mass.
(2) UC (Ulcerative colitis) model group (model group): intragastrically administered with sodium carboxymethylcellulose at a concentration of 0.5% by mass.
(3) SASP (a positive drug salazosulfapyridine) group: Shanghai Xinyi Pharmaceutical Co., Ltd. (Batch No.: 036151102), 500 mg/kg, which was formulated with sodium carboxymethylcellulose at a concentration of 0.5% by mass and stored at 4° C., and intragastrically administered once a day.
(4) SEMI5-50 group: 50 mg/kg, which was formulated with distilled water and stored at 4° C., and intragastrically administered once a day.
(5) SEMI5-150 group: 150 mg/kg, which was formulated with distilled water and stored at 4° C., and intragastrically administered once a day.
3. Experimental method After being adaptively raised for one week in an SPF animal house (experimental animal use license No.: SYXK (Beijing) 2014-0023), the C57BL/6J mice were randomly divided into 5 groups according to the above protocols. Mice in the UC model group and administration groups were modeled with DSS (MP, CA9011-18-1, US) every day according to the modeling method for ulcerative colitis that had been established in the laboratory. The normal control group (control group) and UC model group (model group) were intragastrically administered with sodium carboxymethylcellulose at a concentration of 0.5% by mass once a day. The SASP group, SEMI5-50 group, and SEMI5-150 group were intragastrically administered once a day according to the experimental protocols in the section of “Experimental groups”. 7 d after modeling, typical UC pathological changes such as obvious listlessness, activity reduction, weight loss, watery stool, and hematochezia occurred in animals of the UC model group. The experiments were terminated, and animals in each group were sacrificed. Each of evaluation indexes related with colitis was detected (as shown in the subsequent section of experimental results). The anti-UC pharmacodynamic activity of each of the compounds was evaluated comprehensively.
The animals were evaluated by the DAI scores in terms of indexes such as animal body weight loss, stool property, hematochezia. The lower the DAI score was, the closer was the condition of the animal to a normal physiological status.

[3] = 500 mg/kg intragastrically once a day, 7 d

Row | Compound | Inhibition rate (%) ([1]; Table 2) | Swelling rate (%) Mean ± SD ([1]; Table 2) | Inhibition rate (%) ([1]; Table 3) | Swelling rate (%) Mean ± SD ([1]; Table 3) | Inhibition rate (%) ([1]; Table 4) | Swelling rate (%) Mean ± SD ([1]; Table 4) | Effect on body weight reduction vs. UC model group (in words) ([2]; 500 mg/kg) | Effect on colon contracture vs. UC model group (in words) ([2]; 500 mg/kg) | Effect on disease complex index DAI scores vs. UC model group (in words) ([2]; 500 mg/kg) | Overall anti-UC activity (conclusion in words) ([2]; 500 mg/kg) | Colon contracture percentage (%) [2, 3] [%] | Colon length (cm) [2, 3] [cm] | DAI complex index inhibition rate (%) [2, 3] | Disease activity index DAI [2, 3] | Body weight (g) X ± SD, End ([2]; 500 mg/kg intragastrically once a day, end, 7 d after modeling) [g] | Body weight (g) X ± SD, Start ([2]; 500 mg/kg intragastrically once a day, start of experiment) [g]
1 | COc1ccc2c(c1)c(CC(=O)O)c(C)n2C(=O)c1ccc(Cl)cc1 [Indometacin, indometacin] | 26.01 | 70.25 ± 20.97* % | 27.70 | 74.43 ± 20.97* % | 41.06 | 45.34 ± 6.92* % |  |  |  |  |  |  |  |  |  | 
2 | O=C(O)c1cc(/N=N/c2ccc(S(=O)(=O)Nc3ccccn3)cc2)ccc1O [SASP, salazosulfapyridine] |  |  |  |  |  |  | failed to effectively alleviate the body weight reduction | failed to effectively alleviate the colon contracture | improved to some extent | exhibited a certain anti-UC activity | 31.39 | 5.29 ± 0.61 | 14.68* % | 3.10 ± 0.59 | 18.76 ± 1.09 | 21.97 ± 0.71

Reference: patent publication US12558371B2, “Chondroitin sulfate polysaccharide, and semi-synthetic preparation method therefor and use thereof” (Institute of Materia Medica, Chinese Academy of Medical …, priority 2019, dated 2026)
